Results taken from patent publication US11504349B2, “Composition for preventing or treating TNF-related diseases, containing novel derivative as active ingredient, and method for inhibiting TNF activity by using same” (ILAB, priority 2017, dated 2022).

Key:
TNF = TNF (Homo sapiens, UniProt P01375); assay: TNF-neutralization bioassay: TNF-induced cell death of LM cells (MTT); format: cell-based; conditions: compound 50 μM, TNF 20 ng/ml, actinomycin D, LM cells, 24 hours
Protocol: First, the addition of recombinant TNF to mouse fibroblast LM cells induces cell death, and thus, by using the same, the TNF-neutralization bioassay was constructed. In other words, LM cells were pretreated with TNF (20 ng/ml) and the compounds synthesized in the above examples at various concentrations (5×10^4 cells/well), and a sensitizer actinomycin D ([…]) was added, and cultured in a CO2 incubator for 24 hours, and then the MTT assay was carried out. At this time, 10 μl of MTT (5 mg/ml stock) was added, reacted for 4 hours, and then dissolved in DMSO to measure the absorbance at 570 nm. First, the TNF cell death inhibition/neutralization action of TNF-target expected compounds at single concentration (50 or 10 μM) was measured. Second, IC50 values were determined by treating with the compounds having an excellent effect at different concentrations. The % inhibition of TNF was calculated using the following formula: % inhibition of TNF=(OD value of a group treated with TNF and compound−OD value of TNF treated group/(OD value of TNF untreated group−OD value of TNF treated group)×100.
IC50 values were statistically analyzed using Prism 6 (GraphPad) (IC50: 50% inhibitory concentration, CC50: 50% cytotoxic concentration).

Sequence of TNF (P01375 77-233 limits assumed): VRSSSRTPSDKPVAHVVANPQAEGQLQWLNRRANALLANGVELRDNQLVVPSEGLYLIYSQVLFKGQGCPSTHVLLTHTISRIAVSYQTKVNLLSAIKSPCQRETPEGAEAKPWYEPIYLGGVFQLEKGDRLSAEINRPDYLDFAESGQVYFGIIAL

Structure (SMILES) | melting point [°C] | inhibition at 50 µM (TNF) [%]
COc1ccc2c(=O)c(C(=O)O)c(-c3cccc(F)c3)oc2c1 [Example 1, 2-(3-fluorophenyl)-3-carboxy-7-methoxy-(4H)-4-benzopyranone] | 214 to 215 | 39.1
COc1cccc2c(=O)c(C(=O)O)c(-c3cccc(C)c3)oc12 [Example 5, 2-(3-methylphenyl)-3-carboxy-8-methoxy-(4H)-4-benzopyranone] | 192 to 195 | 34.4
COc1ccc2c(=O)c(C(=O)O)c(-c3cccc(C)c3)oc2c1 [Example 6, 2-(3-methylphenyl)-3-carboxy-7-methoxy-(4H)-4-benzopyranone] | 183 to 184 | 46
COc1ccc2oc(-c3cccc(C)c3)c(C(=O)O)c(=O)c2c1 [Example 7, 2-(3-methylphenyl)-3-carboxy-6-methoxy-(4H)-4-benzopyranone] | 198 to 199 | 47
COc1ccc2c(=O)c(C(=O)O)c(-c3ccc(OC)c(OC)c3)oc2c1 [Example 9, 2-(3,4-dimethoxyphenyl)-3-carboxy-7-methoxy-(4H)-4-benzopyranone] | 208 to 210 | 49.2
COc1cccc2c(=O)c(C(=O)O)c(-c3cccs3)oc12 [Example 12, 2-(2-thiophenyl)-3-carboxy-8-methoxy-(4H)-4-benzopyranone] | 196 to 198 | 62.5
COc1ccc2c(=O)c(C(=O)O)c(-c3cccs3)oc2c1 [Example 13, 2-(2-thiophenyl)-3-carboxy-7-methoxy-(4H)-4-benzopyranone] | 205 to 207 | 55.9

Continued, in another order:

melting point [°C] | Structure (SMILES) | inhibition at 50 µM (TNF) [%]
195 to 197 | COc1cccc2c(=O)c(C(=O)O)c(-c3ccco3)oc12 [Example 2, 2-(2-furanyl)-3-carboxy-8-methoxy-(4H)-4-benzopyranone] | 46.6
217 to 219 | COc1ccc2c(=O)c(C(=O)O)c(-c3ccco3)oc2c1 [Example 3, 2-(2-furanyl)-3-carboxy-7-methoxy-(4H)-4-benzopyranone] | 26.3
205 to 207 | COc1ccc2oc(-c3ccco3)c(C(=O)O)c(=O)c2c1 [Example 4, 2-(2-furanyl)-3-carboxy-6-methoxy-(4H)-4-benzopyranone] | 24.6
237 to 238 | COc1ccc(-c2oc3ccccc3c(=O)c2C(=O)O)cc1OC [Example 8, 2-(3,4-dimethoxyphenyl)-3-carboxy-(4H)-4-benzopyranone] | 24.3
130 to 132 | COc1ccc2c(=O)c(C(=O)O)c(-c3ccccc3Cl)oc2c1 [Example 10, 2-(2-chlorophenyl)-3-carboxy-7-methoxy-(4H)-4-benzopyranone] | 45.6
133 to 135 | O=C(O)c1c(-c2ccccc2Cl)oc2ccccc2c1=O [Example 11, 2-(2-chlorophenyl)-3-carboxy-(4H)-4-benzopyranone] | 60.6
172 to 174 | COc1ccc2oc(-c3cccs3)c(C(=O)O)c(=O)c2c1 [Example 14, 2-(2-thiophenyl)-3-carboxy-6-methoxy-(4H)-4-benzopyranone] | 38.8
175 to 176 | O=C(O)c1c(-c2cccs2)oc2ccccc2c1=O [Example 15, 2-(2-thiophenyl)-3-carboxy-(4H)-4-benzopyranone] | 47.5
202 to 205 | O=C(O)c1c(-c2ccco2)oc2ccccc2c1=O [Example 18, 2-(2-furanyl)-3-carboxy-(4H)-4-benzopyranone] | 48.6
162 to 164 | Cc1cccc(-c2oc3ccccc3c(=O)c2C(=O)O)c1 [Example 19, 2-(3-methylphenyl)-3-carboxy-(4H)-4-benzopyranone] | 48.3
